For one data set, the system named is Calu-3. Nature of the data set: Further in vitro Transwell studies: enhancing translocation of 4 kDa FITC-dextran. The class given is cell-based, human. As to the method:
Exemplary molecules (a)-(1) investigated in coarse dose-response by FD4 delivery in Transwell culture (Calu-3). Each molecule was screened at 5 nM, 1 μM, 200 μM levels.
Each compound was screened at 200 μM level.
Each molecule was screened at 5 nM, 1 μM, 200 μM levels.

For data set [1], the system named is human primary lung epithelium. The experiment in a line: Human primary lung epithelium, air-liquid interface culture: TEER, FD4 and mAb delivery. Type of data set: cell-based.
In a further data set the test system is MMP. Nature of the data set: Fluorogenic MMP activity assay. Type of data set: cell-based, human. As to the method: FIG. 5: High-throughput MMP assay (MMP Activity Assay Kit (Fluorometric-Red), Abcam #ab112147) showing the normalised accumulation slope of FRET-based signal (Ex540: Em590 nm) read at 5 minute intervals for one hour in adherent Calu-3 cells cultured in glass-bottomed 96-well plates using a SpectraMax i3x/Biomek FXPP high-throughput platform. Each experiment was conducted in triplicate (error bars). Signal accumulation over time in each well was linearly fitted and the gradient of each fit was scaled against the gradient of the relevant positive control wells, to which active MMP was added directly (mixed isoforms, […]), to obtain the normalised accumulation slope.
To investigate the involvement of MMP in the disruption of tight junctions observed in the presence of 200 μM 3OC12-HSL and C7 PQS, a fluorogenic MMP activity assay was performed, using the Amplite™ Universal Fluorimetric MMP Activity Assay Kit. This kit is designed to check the general activity of a MMP enzyme.
Following treatment with 3OC12-HSL and C7 PQS respectively, the conditioned media were collected every hour from apical chamber and MMP activity was determined by using Amplite™ Universal Fluorimetric MMP Activity Assay Kit Green Fluorescence according to the manufacturer's instructions.
A fluorogenic MMP activity assay was carried out in the same manner on further agents.

The test system of another data set is ZO-1. The experiment in a line: ZO-1 immunostaining and confocal microscopy of Calu-3 cell layers. Type of data set: cell-based, human. The note with it: 200 μM, one hour, vs vehicle 0.15% DMSO. The protocol: To visualise the effect of 3OC12-HSL and C7 PQS on tight junction integrity in Calu-3 cell layers, ZO-1, immunostaining and confocal microscopy was performed on cell layers treated by 200 μM 3OC12-HSL and C7 PQS and control (0.15% DMSO in HBSS) for one hour. Confluent cell monolayers were washed with PBS and fixed in 4% paraformaldehyde in PBS for approximately 10 min at room temperature. Cells were then washed 3 times with PBS and permeabilised by incubating with Triton X-100 (0.1% v/v in PBS) for 10 min. Cells were then washed with PBS, followed by the application of 1% BSA/PBS for approximately 1 hour. Thereafter, BSA/PBS solution was aspirated and replaced with mouse, anti-human ZO-1 (primary) antibody, diluted in 1% BSA/PBS to a final concentration of 100 μg/ml. Cell samples were incubated with the primary antibody for 2 hours. The primary antibody solution was then removed and cells washed with PBS (5 times). FITC-labelled goat, anti-mouse (secondary) antibody, diluted according to manufacturer's instructions in 1% BSA/PBS was then applied to the cells for 1 hour. The secondary antibody solution was then aspirated and cells washed with PBS three times. […]

For a further data set, the system named is Calu-3 cell layers. The experiment in a line: FD4 permeability and TEER of polarised Calu-3 cell layers. The class given is cell-based, human.
For another data set, the system named is Calu-3 cells. Nature of the data set: MTS assay of metabolic activity / cell viability. Type of data set: cell-based, human. As to conditions: 5 nM to 200 μM, 6 hours. In general terms: Tetrazolium dyes change colour on reduction, which living cells bring about.
For a further data set, the system named is ARPE-19 cell layers. Nature of the data set: Transwell drug transport across ARPE-19 cell layers with or without 3OC12-HSL. Type of data set: cell-based, human. The note with it: doxorubicin 250 μg/ml apical, after 5 hours. The protocol:
FIG. 1: Macromolecular therapeutics transported across ARPE-19 cell layers in the absence and presence of 3OC12-HSL transported into the basolateral chamber over a period of five hours. Permeability experiments were initiated by applying 0.5 ml of the test solutions (250 μg/ml Aflibercept/Bevacizumab/or Doxorubicin diluted in HBSS/HEPES) to the apical side of the cells (donor compartment of the Transwell) with or without 3OC12-HSL (200 μM). Drug permeability was determined by sampling the basolateral solution at regular time intervals. Data points are expressed as means±SEM, derived from three replicates in triplicate. p values of <0.05 were considered statistically significant. *, ** and *** denote p<0.05, p<0.01 and p<0.001, respectively.
Calu-3 cells obtained from American Type Culture Collection, USA were cultured using Dulbecco's Modified Eagle Medium (DMEM) supplemented with penicillin (100 U/mL), streptomycin (0.1 mg/mL), amphotericin (0.25 μg/mL), non-essential amino acids (NEM, 1%) and Fetal Bovine Serum (FBS, 10% v/v, Sigma-Aldrich, UK). The human-derived RPE cell line ARPE-19 was obtained from American Type Culture Collection. Cells were grown in Dulbecco's Modified Eagle Medium: F12 (1:1; Gibco, Invitrogen, Carlsbad, CA), including 10% inactivated fetal bovine serum, 100 units/mL penicillin, 100 μg/mL streptomycin, and 2 mM L-glutamine (Sigma-Aldrich). Caco-2 cells were grown in complete culture medium (DMEM supplemented with 17% FBS and 1% antibiotic-antimycotic solution). All cells were kept in a water-jacketed incubator (model 3546, Forma Scientific, Inc., Marietta, OH, USA) maintained at 37° C. and an atmosphere of humidified air with 5% CO2. Medium was replaced every other day until cells reached the 80-90% confluence desired for re-plating or culturing mature, polarised barrier models.
When confluent, cells were seeded on Transwell® filters (12 mm diameter, 0.4 μm pore size; Corning Life Sciences, Holland) at 10^5 cells/cm^2. […]
Three polarised epithelial in-vitro tissue models, including lung epithelium (Calu-3), retinal pigment epithelium (ARPE-19) and intestinal epithelial (Caco-2) were used to study the efficiency of 200 μM 3OC12-HSL as a paracellular permeability enhancer for three different drugs: bevacizumab, aflibercept and doxorubicin (applied concentrations 250 μg/mL). The amount of drugs transported was determined via the conversion of fluorescence intensity to amount (μg or ng), using calibration curves constructed via serial standard dilutions. […]
Permeability experiments were initiated by applying 0.5 mL of the test solutions to the apical side of the cells (donor compartment of the Transwell®). […] Drug permeability was determined by sampling the basolateral solution at regular time intervals. […]

Another data set concerns ex-vivo rat eyes. As to the method:
In order to investigate the efficacy of 3OC12-HSL as drug delivery enhancer in intact tissue, bevacizumab (250 μg/mL: […]) and aflibercept (40 mg/mL: 348 μM) were applied with and without 3OC12-HSL to ex-vivo rat eyes, and the distribution of drugs was visualised within sagittal ocular cryosections by confocal microscopy. A further set of experiments tested efficacy of 3OC12-HSL via ex vivo porcine skin.
Six hooded rats with pigmented eyes, weighing 280-300 g and aged 7-8 weeks were provided by Bio-Support Unit at the Queen's Medical Centre, Nottingham. Experiments were designed to be performed ex-vivo, immediately post-sacrifice, during experiments supporting other studies. Tested therapies (bevacizumab (250 μg/mL), aflibercept (250 μg/mL) with/without 3OC12-HSL (200 μM) were immediately applied post-sacrifice in (50 μL) to the corneal surface of each animal for a period of 1 hour, before being washed off using ice-cold PBS. The eyeballs were enucleated, immersed in OCT, and flash-frozen in isopentane cooled by liquid N2 before being stored at −80° C. for further processing.
OCT-embedded eyes were cut into 15 μm tissue sections using a cryostat (Leica 3050) and mounted on gelatin-coated slides, at cutting temperatures between −15 and −23° C. […]

Procedure for Calu-3 cells: To assess 3OC12-HSL and C7 PQS molecules cytotoxicity on cell viability of Calu-3 cell layers and to monitor short-term cytotoxicity during experiments, Calu-3 cells were treated with 3OC12-HSL and C7 PQS, at concentrations 5 nM, 1 μM, 50 μM, 100 μM and 200 μM, for 6 hours. At the end of the treatment, cell viability (through measuring metabolic activity) of cultures was determined by chromogenic MTS assay.
The viability of Calu-3 cells was determined by a chromogenic MTS method based on the measuring of mitochondrial respiration, assessed by the reduction of 3-(4,5-dimethylthiazol-2-yl)-5-(3-carboxymethoxyphenyl)-2-(4-sulfophenyl)-2H-tetrazolium to formazan. Calu-3 cells were cultured in a 96-well plate (CellTiter 96® Aqueous, Promega) at a density of 10^4 cells per well and incubated at 37° C., 5% CO2 for 24 hours. After 24 hours, the medium was replaced with 100 μl of test compounds dissolved in HBSS and then cells were incubated for 6 hours. HBSS and Triton X-100 (0.1% v/v in HBSS) were used as the negative and positive controls respectively. Bathing solutions were then aspirated and cells washed with PBS. Then culture medium (100 μl at 37° C.) plus MTS reagent (20 μl) were added into each well and cells were incubated for 2 hours. Absorbance at 492 was measured using a Dynex absorbance microplate reader (Dynex Technologies, USA) and converted into a percentage metabolic rate.

In the case of `CCCCCCCCCc1[nH]c2ccccc2c(=O)c1CN(C)C` [3-C1NMe2 C9 PQS], the “Effective in enhancing translocation” value in the data set on Calu-3 was “No”.
Regarding `CCCCCC/C=C/Cc1[nH]c2ccccc2c(=O)c1C` [3-Me C9: 2. Quinolone], in the data set with Calu-3, the “Effective in enhancing translocation” value is listed as “No”.
Regarding `CCCCCC/C=C\CCCC(=O)N[C@H]1CCOC1=O` [5-cis-C12 HSL], the “Effective in enhancing translocation” value in the data set with Calu-3 is listed as “No”.
Turning to `CCCCCCCc1[nH]c2cc(F)ccc2c(=O)c1O` [7F-C7 PQS], in data set [1], the “TEER (electrical resistance) upon agent exposure” value was “temporarily reduced” and the “mAb (Mepolizumab) delivery upon agent exposure” value is “increased”.
In the case of `CC(C)CCCCCCc1[nH]c2ccccc2c(=O)c1O` [7Me-C8-PQS], the “Effective in enhancing translocation” value in the data set on Calu-3 was “Yes”.
As to `Cc1[nH]c2ccccc2c(=O)c1O` [C1 PQS (Me PQS)], the “Effective in enhancing translocation” value in the data set with Calu-3 was “Yes”.
Take `CCCC(=O)NC1CCOC1=O` (stereo not drawn) [C4 HSL (BHL), N-butyl-homoserine-lactone]: in the data set with MMP (assay carried out in the same manner on further agents), the “MMP activation (further MMP screening)” value is reported as “cause MMP activation”.
Consider `CCCCCCCc1cc(O)c2ccccc2[n+]1[O-]` [C7 HNQ N-oxide], for which the “Effective in enhancing translocation” value in the data set on Calu-3 is “Yes”.
As to `CCCCCCCc1[nH]c2ccccc2c(=O)c1O` [C7 PQS, 2-n-heptyl-3-hydroxy-4 (1H)-quinolone], the “ZO-1 distribution at tight junctions” value in the data set on ZO-1 is listed as “considerable dislocation of ZO-1 proteins”. In the data set with Calu-3 cell layers (200 μM (3OC12-HSL: 200 μM or 1 μM)), the “paracellular passage / flux of FD4 from apical to basolateral chamber” value is reported as “increased the flux of FD4”. In addition, the “TEER after 7 hours” value with Calu-3 cell layers (200 μM, recovery, SEM+/−20) is on record as 510 Ωcm^−2. Moreover, in the data set with Calu-3 cell layers (during exposure), the “time after which TEER started increasing / cell layer integrity began to recover” value was 5 h. The “cytotoxic effect on cell viability within epithelial layers” value in the data set on Calu-3 cells was “do not have an adverse cytotoxic effect”. Besides, the “Effective in enhancing translocation” value in the data set on Calu-3 is given as “Yes”. Moreover, the “MMP activation in apical samples taken at one-hour intervals” value in the data set on MMP (200 μM, p<0.01, no fluorescence in control samples) was “significant MMP activation”. The “period over which MMP activation increased before starting to reduce” value with MMP (samples taken hourly from apical chamber) is 4 h.
In the case of `CCCCCCCCCc1[nH]c2ccccc2c(=O)c1O` [C9 PQS], the “Effective in enhancing translocation” value with Calu-3 is “Yes”.
Still for that read-out and setting: then `CCCCCCCCCCCc1[nH]c2ccccc2c(=O)c1O` [C11 PQS], with “Yes”.
Take `CCCCCCC/C=C\C(=O)O` [Cis-2-decenoic acid, cis-2-decenoic acid]: the “Effective in enhancing translocation” value in the data set with Calu-3 is reported as “Yes”.
In the case of `COc1cccc2c1C(=O)c1c(O)c3c(c(O)c1C2=O)C[C@@](O)(C(=O)CO)C[C@@H]3O[C@H]1C[C@H](N)[C@H](O)[C@H](C)O1` [Doxorubicin, reference compound], the “amount of drug transported into the basolateral chamber” value stood at 62.33 µg with ARPE-19 cell layers (with 3OC12-HSL (200 μM)) and 9.85 µg in the data set on ARPE-19 cell layers (without 3OC12-HSL).
Regarding `CCCCCCCc1cc(O)c2ccccc2n1` [HHQ], the “Effective in enhancing translocation” value with Calu-3 was “Yes”.
Consider `CCCCCCCCCC1=Nc2ccccc2C(=O)C1` [HNQ], for which, in the data set with Calu-3, the “Effective in enhancing translocation” value was “Yes”.
For `CCCCC(=O)CC(=O)NC1CCOC1=O` (stereo not drawn) [OC7-HSL], the “Effective in enhancing translocation” value with Calu-3 is reported as “Yes”.
For the compound `CCCCCCCCCC(=O)CC(=O)Nc1nccs1` [OdDAT], in data set [1], the “TEER (electrical resistance) upon agent exposure” value is listed as “temporarily reduced” and the “mAb (Mepolizumab) delivery upon agent exposure” value is recorded as “increased”.
`CCCCCNC(=O)c1[nH]c2ccccc2c(=O)c1O` [PQS-C5-Amide]: in the data set on Calu-3, the “Effective in enhancing translocation” value is given as “No”.
As for `CCCCCCCCCCCc1cc(=O)c2ccccc2[nH]1` [UHQ], in the data set with Calu-3, the “Effective in enhancing translocation” value is listed as “Yes”.
Consider “Aflibercept: recombinant fusion protein of VEGF-binding portions of human VEGF receptors 1 and 2 and Fc of human IgG1”, for which, in the data set with ex-vivo rat eyes, the “fluorescence in eye sections (CLSM)” value is “No fluorescence was detected”.

The values are drawn from patent US20250302816A1, “DISRUPTION OF EPITHELIAL BARRIERS FOR MOLECULAR DELIVERY ENHANCEMENT OR EXTRACTION OF EXTRACELLULAR FLUIDS” (The University of Nottingham, priority 2022, published 2025).
